{"source": "paper PMC12216189", "about": "(Nature Communications, 2025)", "key": {"A. baumannii 19606 [1]": {"system": "A. baumannii 19606", "test": "Bactericidal assay of kanamycin with/without HNP1, no preincubation", "assay_type": "cell-based, Acinetobacter baumannii", "settings": "0–100 μg/ml, LB broth, 24 h"}, "A. baumannii 19606 [2]": {"system": "A. baumannii 19606", "test": "Biofilm formation assay", "assay_type": "cell-based, Acinetobacter baumannii", "settings": "for Biofilm-enhancing activity of HNP1 mutants (CV staining): HNP1 Ala-scan mutants and analogs, Fig. 6F"}, "Shigella": {"system": "Shigella", "settings": "sub-lethal concentrations; ref [78]; cited from earlier work"}, "Staphylococcus": {"system": "Staphylococcus", "settings": "ref [26]; cited from earlier work"}, "A. baumannii 19606 [3]": {"system": "A. baumannii 19606", "test": "Real colony count bactericidal assay in LB broth", "assay_type": "cell-based, Acinetobacter baumannii", "settings": "4 μM"}, "[4]": {"system": "S. aureus, P. aeruginosa, and A. baumannii", "settings": "various bacteria, including S. aureus, ref [24]–[26]; cited from earlier work"}, "[5]": {"target": "Fam-A11K-HNP1 (fluorescently labeled synthetic human neutrophil peptide 1) (human)", "test": "fluorescence polarisation"}, "drug-resistant bacteria": {"system": "drug-resistant bacteria", "settings": "ref [84]; cited from earlier work"}, "A. baumannii 19606 [6]": {"system": "A. baumannii 19606", "test": "Competitive inhibition by recombinant OmpA of HNP1-promoted biofilm formation", "assay_type": "cell-based, Acinetobacter baumannii", "settings": "0–2 μM OmpA"}}, "note": "Ends that are not written are not given here.", "data": [{"molecule": "NC[C@H]1O[C@H](O[C@H]2[C@H](O)[C@@H](O[C@H]3O[C@H](CO)[C@@H](O)[C@H](N)[C@H]3O)[C@H](N)C[C@@H]2N)[C@H](O)[C@@H](O)[C@@H]1O", "note": "[Kanamycin]", "values": [{"measurement": "Kanamycin effect on bacterial growth and survival", "setting": "A. baumannii 19606 [1]", "result": "dose-dependently inhibited bacterial growth and survival"}]}, {"molecule": "AFTCHCRR-SCYSTEYSYGTCTVMGINHRFCCL (disulfide) [HD6]", "values": [{"measurement": "Effect on biofilm formation (CV staining)", "setting": "A. baumannii 19606 [2]; 4 μM, A. baumannii 19606", "result": "slightly enhanced it"}]}, {"molecule": "ATCYCRTGRCATRESLSGVCEISGRLYRLCCR (disulfide (positions not given here)) [HD5]", "values": [{"measurement": "Shigella infection of epithelial cells and tissues", "setting": "Shigella", "result": "promotes, at sub-lethal concentrations, Shigella infection"}, {"measurement": "Effect on biofilm formation (CV staining)", "setting": "A. baumannii 19606 [2]; 4 μM, A. baumannii 19606", "result": "slightly enhanced it"}]}, {"molecule": "HBD1: human β-defensin (DHYNCVSSGGQCLYSACPIFTKIQGTCYRGKAKCCK; ends and bridges not checked; cysteine pairing not given here; UniProt P60022 33-68, looked up)", "values": [{"measurement": "Effect on biofilm formation (CV staining)", "setting": "A. baumannii 19606 [2]; 4 μM, A. baumannii 19606", "result": "inactive in promoting biofilm formation"}]}, {"molecule": "HBD3: human β-defensin 3, cited only (GIINTLQKYYCRVRGGRCAVLSCLPKEEQIGKCSTRGRKCCRRKK; ends and bridges not checked; cysteine pairing not given here; UniProt P81534 23-67, looked up)", "values": [{"measurement": "Effect on biofilm formation", "setting": "Staphylococcus", "result": "inhibitory against biofilm formation"}]}, {"molecule": "I6A: HNP1 Ala-substitution mutant", "values": [{"measurement": "Biofilm-enhancing activity of HNP1 mutants (CV staining)", "setting": "A. baumannii 19606 [2]", "result": "significant decrease in biofilm enhancement"}]}, {"molecule": "I20A/L25A: HNP1 Ala-substitution mutant", "values": [{"measurement": "Biofilm-enhancing activity of HNP1 mutants (CV staining)", "setting": "A. baumannii 19606 [2]", "result": "significant decrease in biofilm enhancement"}]}, {"molecule": "LL37: human cathelicidin (LLGDFFRKSKEKIGKEFKRIVQRIKDFLRNLVPRTES; Antibacterial peptide LL-37; UniProt P49913 134-170, looked up)", "values": [{"measurement": "Effect on biofilm formation (CV staining)", "setting": "A. baumannii 19606 [2]; 4 μM, A. baumannii 19606", "result": "significantly inhibited biofilm formation"}, {"measurement": "Bacterial killing in LB broth", "setting": "A. baumannii 19606 [3]", "result": "killing of the bacteria even in the presence of LB broth"}, {"measurement": "Effect on biofilm formation", "setting": "[4]", "result": "inhibit biofilm formation by various bacteria"}]}, {"molecule": "OmpA-ΔL1L2 (full-length OmpA with extracellular loops L1 and L2 deleted) (natural protein)", "values": [{"measurement": "fold decrease of binding against full-length OmpA", "setting": "[5]", "result": 3, "unit": "fold"}]}, {"molecule": "R15A: HNP1 Ala-substitution mutant", "values": [{"measurement": "Biofilm-enhancing activity of HNP1 mutants (CV staining)", "setting": "A. baumannii 19606 [2]", "result": "significant decrease in biofilm enhancement"}]}, {"molecule": "T18A: HNP1 Ala-substitution mutant", "values": [{"measurement": "Biofilm-enhancing activity of HNP1 mutants (CV staining)", "setting": "A. baumannii 19606 [2]", "result": "significant decrease in biofilm enhancement"}]}, {"molecule": "TM-ΔL1L2 (transmembrane domain of OmpA with extracellular loops L1 and L2 deleted) (domain or fragment)", "values": [{"measurement": "fold decrease of binding against the transmembrane domain of OmpA", "setting": "[5]", "result": 3, "unit": "fold"}]}, {"molecule": "VCSCRLVFCRRTELRVGNCLIGGVSFTYCCTRV (disulfide (positions not given here)) [HNP4]", "values": [{"measurement": "Effect on biofilm formation (CV staining)", "setting": "A. baumannii 19606 [2]; 0–32 μM, LB broth, 96-well plate, 24 h, 37 °C", "result": "largely inactive"}, {"measurement": "Effect on biofilm formation (CV staining)", "setting": "A. baumannii 19606 [2]; 4 μM, A. baumannii 19606", "result": "inactive in promoting biofilm formation"}]}, {"molecule": "W26A-HNP1: dimerization-debilitating analog", "values": [{"measurement": "Biofilm-enhancing activity of HNP1 mutants (CV staining)", "setting": "A. baumannii 19606 [2]", "result": "completely lost their biofilm-enhancing activity"}]}, {"molecule": "colistin", "values": [{"measurement": "Potentiation of antibacterial activity of classic antibiotics", "setting": "drug-resistant bacteria", "result": "potentiate the antibacterial activity of classic antibiotics"}]}, {"molecule": "full-length recombinant OmpA (outer membrane protein A) of Acinetobacter baumannii ATCC 19606 (natural protein) GVTVTPLLLGYTFQDSQHNNGGKDGNLTNGPELQDDLFVGAALGIELTPWLGFEAEYNQVKGDVDGASAGAEYKQKQINGNFYVTSDLITKNYDSKIKPYVLLGAGHYKYDFDGVNRGTRGTSEEGTLGNAGVGAFWRLNDALSLRTEARATYNADEEFWNYTALAGLNVVLGGHLKPAAPVVEVAPVEPTPVAPQPQELTEDLNMELRVFFDTNKSNIKDQYKPEIAKVAEKLSEYPNATARIEGHTDNTGPRKLNERLSLARANSVKSALVNEYNVDASRLSTQGFAWDQPIADNKTKEGRAMNRRVFATITGSRTVVVQPGQEAAAPAAAQ", "values": [{"measurement": "Kd", "setting": "[5]", "result": 500, "unit": "nM"}]}, {"molecule": "OmpA: recombinant A. baumannii outer membrane protein A with His tag (protein, left off: His tag, end not stated, state not stated) GVTVTPLLLGYTFQDSQHNNGGKDGNLTNGPELQDDLFVGAALGIELTPWLGFEAEYNQVKGDVDGASAGAEYKQKQINGNFYVTSDLITKNYDSKIKPYVLLGAGHYKYDFDGVNRGTRGTSEEGTLGNAGVGAFWRLNDALSLRTEARATYNADEEFWNYTALAGLNVVLGGHLKPAAPVVEVAPVEPTPVAPQPQELTEDLNMELRVFFDTNKSNIKDQYKPEIAKVAEKLSEYPNATARIEGHTDNTGPRKLNERLSLARANSVKSALVNEYNVDASRLSTQGFAWDQPIADNKTKEGRAMNRRVFATITGSRTVVVQPGQEAAAPAAAQ", "values": [{"measurement": "Effect of recombinant OmpA on HNP1-promoted biofilm formation", "setting": "A. baumannii 19606 [6]; 8 μM HNP1", "result": "dose-dependently inhibited biofilm formation promoted by HNP1"}, {"measurement": "Effect of recombinant OmpA on biofilm formation without HNP1", "setting": "A. baumannii 19606 [6]; no HNP1", "result": "little effect on biofilm formation"}]}]}
